Laboratory results reported in paper PMC3702004, “Comparison of Intake and Systemic Relative Effect Potencies of Dioxin-like Compounds in Female Mice after a Single Oral Dose” (Environmental Health Perspectives, 2013).

Assays:
Cyp1b1 mRNA in liver = test: Cyp1b1 gene expression in liver (real-time PCR); format: in vivo, female C57BL/6 mice; conditions: for BMR20TCDD Liver Cyp1b1 mRNA: 3 days after single oral dose; for REP Liver Cyp1b1 mRNA: relative to TCDD; for Effect on hepatic Cyp1b1 mRNA expression: single oral dose, day 3
Description: (§1) Animals. Eight-week-old female C57BL/6 mice (Harlan laboratories, Venray, the Netherlands) were randomly assigned to treatment groups (six animals per group) and allowed to acclimate for 1.5 weeks. The animals were housed in groups in standard cages and conditions (23 ± 2°C, 50–60% relative humidity, 12-hr dark/light cycle) with free access to food and water. Mice received a single dose of test compound by oral gavage at a dosing volume of 10 mL/kg body weight (BW). Mice treated with corn oil vehicle (10 mL/kg BW) served as controls. For each congener, five different doses were administered, ranging from 0.5–100 μg/kg BW (TCDD) to 5,000–500,000 µg/kg BW (PCB-153). Detailed information on doses is provided in Supplemental Material, Table S1 (http://dx.doi.org/10.1289/ehp.1206336). On day 3 after dosing, animals were euthanized by CO2/O2 asphyxiation, and blood was immediately collected from the abdominal aorta. The liver, thymus, spleen, and adipose tissue were removed, weighed (liver, thymus, and spleen), snap frozen, and stored at –80°C. All animal treatments were performed with permission of the Animal Ethical Committee (DEC Utrecht) and performed according to the [Law on Animal Experiments (1977)]. Animals were treated humanely and with regard for alleviation of suffering.
(§2) RNA isolation and quantitative real-time polymerase chain reaction (PCR). Total RNA was isolated from liver and PBLs using a QIAGEN RNeasy kit (QIAGEN). Purity and concentration of the isolated RNA was determined by measuring the absorbance ratio at 260/280 nm and 230/260 nm with a Nanodrop 2000 spectrophotometer (Thermo Scientific, Asheville, NC, USA). RNA was reverse transcribed to complementary DNA (cDNA) using the iScript cDNA synthesis Kit (Bio-Rad, Veenendaal, the Netherlands). Quantitative real-time PCR analyses were performed using the iQ Real-Time PCR Detection System with SYBR green (Bio-Rad). Amplification reactions were set up with […] containing 12.5 μL iQ SYBR Green Supermix (Bio-rad), 0.5 μL distilled H2O, 1 μL (10 μM) forward primer, 1 μL (10 μM) reverse primer, and 10 μL first strand cDNA (10X diluted). Primer sequences were as follows: Cyp1a1: forward-5´-GGTTAACCATGACCGGGAACT-3´ and reverse-5´-TGCCCAAACCAAAGAGAGTGA-3´ ([Schulz et al. 2012]); Cyp1a2: forward-5´-ACATTCCCAAGGAGCGCTGTATCT-3´ and reverse-5´-GTCGATGGCCGAGTTGTTATTGGT-3´ ([Flaveny et al. 2010]); Cyp1b1: forward-5´-GTGGCTGCTCATCCTCTTTACC-3´ and reverse-5´-CCCACAACCTGGTCCAACTC-3´ ([Berge et al. 2004]); β-actin: forward-5´-ATGCTCCCCGGGCTGTAT-3´ and reverse-5´-CATAGGAGTCCTTCTGACCCATTC-3´ ([Schulz et al. 2012]). All primers were run through the National Center for Biotechnology Information Primer-BLAST database (http://www.ncbi.nlm.nih.gov/tools/primer-blast/) to confirm specificity and validate for optimal annealing temperature (60°C for all primers) and efficiency. The efficiency of all primer pairs was 98–102% (tested at 60°C). The following program was used for denaturation and amplification of cDNA: 3 min at 95°C, followed by 40 cycles of 15 sec at 95°C and 45 sec at 60°C. Gene expression for each sample was expressed as threshold cycle (Ct), normalized to the reference gene β-actin (ΔCt). We calculated fold induction relative to the control group.
(§3) Data analysis. We obtained concentration–response curves using a sigmoidal dose–response nonlinear regression curve fit with variable slope (GraphPad Prism 6.01; GraphPad Software Inc., San Diego, CA, USA):
(§4) In this Hill equation, y is the dependent variable (EROD activity or fold induction of mRNA levels), x the independent variable (administered or systemic dose), E0 is the estimated background response level, Emax is the maximum response, b is the estimated median effective concentration (EC50), and n is the shaping parameter of the Hill curve.
(§5) Using the congener-specific BMR20TCDD concentration, REPs were calculated relatively to TCDD: […]

Cyp1b1 mRNA = test: Cyp1b1 gene expression in liver (real-time PCR); format: in vivo, female C57BL/6 mice; conditions: female, C57BL/6, mouse, in vivo; single oral dose, day 3; read-out: Maximum induction of hepatic Cyp1b1 mRNA, of the maximal response of TCDD
Description: as §1, §2, §3, §4, §5

[1] = CYP1A2 knockout mice; ref Diliberto et al. 1997; cited from earlier work
[2] = dose metric Adm dose (µg/kg BW)
[3] = dose metric Syst adipose (ng/g lipid)
[4] = dose metric Syst liver (ng/g lipid)
[5] = dose metric Syst liver (ng/g liver)
[6] = dose metric Syst plasma (ng/g lipid)

Row | SMILES | BMR20TCDD Liver Cyp1b1 mRNA (Cyp1b1 mRNA in liver; dose metric Adm dose) | BMR20TCDD Liver Cyp1b1 mRNA (Cyp1b1 mRNA in liver; dose metric Syst adipose) | BMR20TCDD Liver Cyp1b1 mRNA (Cyp1b1 mRNA in liver; dose metric Syst plasma) | REP Liver Cyp1b1 mRNA (Cyp1b1 mRNA in liver; [2]) | REP Liver Cyp1b1 mRNA (Cyp1b1 mRNA in liver; [3]) | REP Liver Cyp1b1 mRNA (Cyp1b1 mRNA in liver; [4]) | REP Liver Cyp1b1 mRNA (Cyp1b1 mRNA in liver; [5]) | REP Liver Cyp1b1 mRNA (Cyp1b1 mRNA in liver; [6]) | Effect on hepatic Cyp1b1 mRNA expression (Cyp1b1 mRNA in liver) | Emax (Cyp1b1 mRNA) [%] | Liver:adipose ratio [1]
1 | Clc1cc2oc3c(Cl)c(Cl)c(Cl)cc3c2cc1Cl [Congener 4-PeCDF, 2,3,4,7,8-pentachlorodibenzofuran] | 150 µg/kg BW | 461 ng/g lipid | 44.6 ng/g lipid | 0.02 | 0.02 | 0.01 | 0.02 | 0.3 | dose-dependently increased |  | 
2 | Clc1ccc(-c2cc(Cl)c(Cl)cc2Cl)cc1Cl [PCB-118, 2,3´,4,4´,5-pentachlorobiphenyl] |  |  |  |  |  |  |  |  |  | < 0.3 | 
3 | Clc1ccc(-c2cc(Cl)c(Cl)c(Cl)c2)cc1Cl [PCB-126, 3,3´,4,4´,5-pentachlorobiphenyl] |  |  |  |  |  |  |  |  | did not induce |  | 
4 | Clc1ccc(-c2cc(Cl)c(Cl)c(Cl)c2Cl)cc1Cl [PCB-156, 2,3,3´,4,4´,5-hexachlorobiphenyl] | 95,664 µg/kg BW | 745,126 ng/g lipid | 553,459 ng/g lipid | 0.00004 | 0.00001 | 0.0003 | 0.0004 | 0.00002 | dose-dependently increased |  | 
5 | Clc1cc2c(cc1Cl)Oc1c(cc(Cl)c(Cl)c1Cl)O2 [PeCDD, 1,2,3,7,8-pentachlorodibenzodioxin] | 10.1 µg/kg BW | 19.4 ng/g lipid | 18.5 ng/g lipid | 0.4 | 0.5 | 0.2 | 0.3 | 0.6 | dose-dependently increased |  | 
6 | Clc1cc2c(cc1Cl)Oc1cc(Cl)c(Cl)cc1O2 [TCDD, 2,3,7,8-tetrachlorodibenzodioxin, reference compound] | 3.55 µg/kg BW | 10.3 ng/g lipid | 11.6 ng/g lipid | 1 | 1 | 1 | 1 | 1 | dose-dependently increased |  | < 0.3
